In patent US20100113550A1, “New Crystal Forms” (BIAL - PORTELA AND CA, S.A., priority 2006, published 2010):
“Also recorded” adds a separate entry of the source. Like-named read-outs stand apart in the source and are kept apart here.

Key:
Assay type in all cases: physicochemical
[1] = Approximate solubilities (solvent added until a solution forms); conditions: for solubility: read-out: Solubility (approximate)
Source text: Approximate solubilities of compound 1, Form A in aqueous mixtures containing high concentrations of organic solvents are given in Table 1. [table]

[2] = Interconversion studies of Forms A and C (slurries, XRPD); conditions: interconversion in ethanol and acetone:water 99:1
Procedure: A slurry of compound 1, Form A, was prepared in a given solvent and loaded on an orbit shaker at either ambient or elevated temperature for at least 1 day. The liquid phase of the slurry was drawn off with a pipette and filtered through a 0.2-μm filter. A slurry containing compound 1 forms A and C was prepared using the filtered liquid phase from the Form A slurry. The mixture was then loaded on an orbit shaker in a sealed vial at either ambient or elevated temperature for 1 or 7 days. The solids were isolated by vacuum filtration or by drawing the liquid phase off with a pipette and allowing the solids to air dry at ambient conditions prior to analysis. The resulting Forms were characterised by XRPD.

[3] = RH stability: storage at controlled relative humidity or drying, checked by XRPD and for deliquescence
[4] = as above; conditions: high relative humidities, long periods of time
Source text: Form A samples were stored at lower relative humidities of approximately 9-11, 23 and 32% RH and analyzed by XRPD and Karl-Fischer titration analysis after four weeks (Tables 30 and 31). The samples appeared to be Form A by XRPD. […] Note that the water content in the samples at 23 and 32% RH was slightly higher compared to the initial batch of Form A.
Form X samples were stored at relative humidities of approximately 43, 75 and 90% RH and analyzed by XRPD and Karl-Fischer titration analysis after five weeks (Tables 34 and 35).

Cl.NCCc1c[nH]c(=S)n1[C@H]1COc2c(F)cc(F)cc2C1 [Form C, (R)-5-(2-Aminoethyl)-1-(6,8-difluorochroman-3-yl)-1,3-dihydroimidazole-2-thione hydrochloride]
solubility ([1]; 1,4-dioxane, organic solvent or mixture, 1,4-dioxane): < 1000 µg/mL | solubility ([1]; 1,4-dioxane:water 9:1, organic solvent or mixture, 1,4-dioxane:water 9:1): > 22000 µg/mL | Solubility (approximate) ([1]; 1,4-dioxane:water 99:1, hydrochloride): <22000 µg/mL | Solubility (approximate) ([1]; 2,2,2-trifluoroethanol, hydrochloride): 1700 µg/mL | solubility ([1]; THF:water 9:1, organic solvent or mixture, THF:water 9:1): > 23000 µg/mL | solubility ([1]; THF:water 99:1, organic solvent or mixture, THF:water 99:1): < 24000 µg/mL | Solubility (approximate) ([1]; acetone:water 90:10 (9:1)): >23000 µg/mL | Solubility (approximate) ([1]; acetone:water 99:1, hydrochloride): <24000 µg/mL | Solubility (approximate) ([1]; acetone, hydrochloride): <1000 µg/mL | solubility ([1]; acetonitrile, organic solvent or mixture, acetonitrile): < 1000 µg/mL | solubility ([1]; acetonitrile:water 4:1, organic solvent or mixture, acetonitrile:water 4:1): > 40000 µg/mL | Solubility (approximate) ([1]; acetonitrile:water 90:10 (9:1), hydrochloride): <25000 µg/mL | Solubility compared with the other forms (in words) ([1]; comparison between forms): lower compared to the solubilities of Form A | solubility ([1]; dichloromethane, organic solvent or mixture, dichloromethane): < 1000 µg/mL | solubility ([1]; diethyl ether, organic solvent or mixture, diethyl ether): < 1000 µg/mL | Solubility (approximate) ([1]; ethanol:water 90:10 (9:1), hydrochloride): <22000 µg/mL | Solubility (approximate) ([1]; ethanol, hydrochloride): 2000 µg/mL | solubility ([1]; ethyl acetate, organic solvent or mixture, ethyl acetate): < 1000 µg/mL | solubility ([1]; hexafluoro isopropanol, organic solvent or mixture, hexafluoro isopropanol): 1000 µg/mL | solubility ([1]; hexane, organic solvent or mixture, hexane): < 1000 µg/mL | Solubility (approximate) ([1]; iso-propanol, hydrochloride): <1000 µg/mL | Solubility (approximate) ([1]; methanol, hydrochloride): 21000 µg/mL | Solubility (approximate) ([1]; methyl ethyl ketone, hydrochloride): <1000 µg/mL | solubility ([1]; n-propanol, organic solvent or mixture, n-propanol): < 1000 µg/mL | Solubility by kind of solvent (in words) ([1]; organic solvents and aqueous mixtures, hydrochloride): poorly soluble in most organic solvents, except in methanol; also recorded: slightly soluble in ethanol, hexafluoroisopropanol, 2,2,2-trifluoroethanol, and some aqueous mixtures | Solubility (approximate) ([1]; tetrahydrofuran (THF), hydrochloride): <1000 µg/mL | solubility ([1]; toluene, organic solvent or mixture, toluene): < 1000 µg/mL | solubility ([1]; water): 23000 µg/mL | Relative thermodynamic stability of the forms [2]: more thermodynamically stable than Form A | Hygroscopicity [3]: non-hygroscopic | RH stability, XRPD result ([3]; 95% relative humidity, ~2 months): did not change | Deliquescence ([3]; approximately 65% relative humidity, one week): did not deliquesce | Deliquescence ([3]; approximately 90% relative humidity, 11 days): did not deliquesce | Stability under high relative humidities [4]: remain stable
